This assay has as its system pancreatic cancer cell line SW1990. Put plainly: Relative quantitation of sialylated N-glycans from SW1990 cells with and without 1,3,4-O-Bu3ManNAc treatment (light/heavy p-toluidine labeling, MALDI-MS). Type of assay: cell-based. As to conditions: for H/L: SW1990 cells treated (heavy) vs untreated (light), glycan Core+Na. The protocol: Proteins were immobilized to amino link beads via reductive amination. Briefly, AminoLink resin (200 μL) was loaded onto snap-cap spin-column, centrifuged at 2000 g for 1 minute. Resin was washed with 450 μL of pH 10 buffer (Sodium citrate 100 mM and sodium carbonate 50 mM) followed by centrifugation. The washing step was repeated twice. Proteins dissolved in pH 10 buffer were loaded onto prepared AminoLink resin in snap-cap spin-column in 1 mg/200 μL beads ratio. The volume was adjusted to 450 μL using pH 10 buffer. Sample-resin mixture was incubated at room temperature overnight. The mixture was centrifuged at 2000 g to remove any unbound protein. Resin was rinsed by 1×PBS buffer (Sigma-Aldrich; pH 7.4; 450 μL) three times. PBS buffer in the presence of 50 mM sodium cyanoborohydride (450 μL) was added to resin (spin-column capped during each incubation step). After a four hour incubation, supernatant was removed via centrifugation (2000 g) and 450 μL of 1 M Tris-HCl (pH 7.6) in the presence of 50 mM sodium cyanoborohydride was added to block un-reacted aldehyde sites of resin. The blocking process was terminated after 1 hour, followed by washing of resin with PBS twice, 1M […] twice and water three times.
Proteins conjugated on solid support were mixed with 450 μL of 1M p-toluidine and 40 μL of EDC at pH 4.5 adjusted using HCl. After incubation for 4 hours, beads were washed twice with 500 μL of 1M NaCl and water followed by 50 mM ammonium bicarbonate, three times for each solution, and treated with 100 units of PNGase F in 0.3 mL of 50 mM ammonium bicarbonate overnight at 37° C. to release N-glycans from proteins. Nglycans released in the supernatant were subsequently collected. The N-glycans released from glycoproteins were further purified and concentrated over Carbograph columns (Extract-Clean SPE Carbo 150 mg; Grace Division Discovery Science; Deerfield, Ill.) and eluted in 0.1% TFA 50% acetonitrile/water following the manufacturer's instruction (Grace Davison Discovery Sciences, Milwaukee, Wis.). Glycans were then dried in Savant Speed-Vac (Thermo Scientific, Asheville, N.C.).
Glycans were resuspended in 20 μL of water. Sample 1.5 μL was mixed 1.5 μL of matrix on a 384-well goals MALDI plate (Hudson Surface Technology, Fort Lee, N.J.). DHB matrix solution was prepared by dissolving 100 mg of DHB in 1 mL of a 1:1 solution of water and ACN followed by addition of 40 μL of dimethylaniline. Glycans were analyzed by Shimadzu AXIMA Resonance Mass Spectrometer (Shimadzu, Columbia, Md.) in positive mode.
It has been well established that the extent of glycan sialylation depends on sialyltransferases, the biosynthetic enzymes responsible for adding a sialic acid to an underlying galactose or GalNAc residue. […] To fill this void, in the present invention we profiled N-glycans in SW1990 treated with 1,3,4-O-Bu3ManNAc as previously described. Protein extract from 1,3,4-O-Bu3ManNAc treated SW1990 cells and untreated control cells were conjugated to solid support and labeled with isotopic p-toluidine as described above. The mass spectrometric analysis of labeled glycans identified 87 N-glycans based on accurate mass (data not shown). Sialic acid compositional assignment was determined based on the differences of heavy and light labeled glycans. Twenty one heavy and light glycan peaks were identified with a mass shift of 7 or a multiple of 7, confirming that the presence of 21 sialylated glycans (FIGS. 13A and 13B). Qualitative analysis of N-glycans from cells with and without ManNAc treatment using isotopic labeling of sialylated N-glycans with 1:1 combined samples identified and quantified 14 sialylated glycans (Table 5). Seven other sialylated Nglycans could not be quantified due to low signal to noise ratio when the two samples were combined for MS analysis.

Turning to `CCCC(=O)OC1O[C@H](CO)[C@@H](OC(=O)CCC)[C@H](OC(=O)CCC)[C@@H]1NC(C)=O` (stereo partly shown) [1,3,4-O—Bu3ManNAc, 1,3,4-O-Bu3ManNAc], the H/L (Fucose 0, HexNAc 2, Hexose 2, Sialic Acid 1, [M+Na] 2043.89) amounted to 1.29; the H/L (Fucose 1, HexNAc 2, Hexose 2, Sialic Acid 1, [M+Na] 2189.95) is 1.09; the H/L (Fucose 1, HexNAc 2, Hexose 2, Sialic Acid 2, [M+Na] 2570.21) is 1.02; the H/L (Fucose 1, HexNAc 3, Hexose 2, Sialic Acid 1, [M+Na] 2393.04) stood at 1.95; the H/L (Fucose 1, HexNAc 3, Hexose 2, Sialic Acid 2, [M+Na] 2773.31) is 1.70; the H/L (Fucose 1, HexNAc 3, Hexose 3, Sialic Acid 1, [M+Na] 2555.10) came out at 1.31. In addition, the H/L by setting is: (Fucose 1, HexNAc 3, Hexose 3, Sialic Acid 2, [M+Na] 2935.36) 0.98; (Fucose 1, HexNAc 4, Hexose 3, Sialic Acid 1, [M+Na] 2758.19) 1.66; (Fucose 2, HexNAc 2, Hexose 2, Sialic Acid 1, [M+Na] 2336.01) 1.10; (Fucose 2, HexNAc 3, Hexose 2, Sialic Acid 1, [M+Na] 2539.10) 1.31; (Fucose 2, HexNAc 3, Hexose 3, Sialic Acid 1, [M+Na] 2701.15) 1.03; (Fucose 2, HexNAc 4, Hexose 3, Sialic Acid 1, [M+Na] 2904.25) 2.04. Further, the H/L reads like this: (Fucose 3, HexNAc 3, Hexose 2, Sialic Acid 1, [M+Na] 2585.15) 1.00; (Fucose 3, HexNAc 4, Hexose 3, Sialic Acid 1, [M+Na] 3050.31) 1.39. In addition, the “decrease in sialylated N-glycans when cells were treated” value (SW1990 cells, treated vs untreated) is reported as “no significant decrease”. Besides, the “number of sialylated N-glycan compositions with a significant increase in abundance” value (SW1990 cells, treated vs untreated, 14 sialylated glycans quantified) is recorded as “six”.

The record behind these values is patent publication US20150233903A1, “SOLID PHASE GLYCAN AND GLYCOPEPTIDE ANALYSIS AND MICROFLUIDIC CHIP FOR GLYCOMIC EXTRACTION, ANALYSIS AND METHODS FOR USING SAME” (THE JOHNS HOPKINS UNIVERSITY, priority 2012, published 2015).
